The term pIC50 denotes the negative decadic logarithm of the IC50, by convention in mol/L. What is called IC50 is the concentration that inhibits the measured activity by half. Read a low IC50 as greater potency.

This note sets out measurements from ChEMBL document CHEMBL3045634, “Quantitative structure activity relationship analysis of angiotensin II AT1 receptor antagonists” (Med Chem Res, 2010).

One assay concerns the target T1, Type-1 angiotensin II receptor (Homo sapiens) (UniProt P30556).
T1 sequence (whole entry): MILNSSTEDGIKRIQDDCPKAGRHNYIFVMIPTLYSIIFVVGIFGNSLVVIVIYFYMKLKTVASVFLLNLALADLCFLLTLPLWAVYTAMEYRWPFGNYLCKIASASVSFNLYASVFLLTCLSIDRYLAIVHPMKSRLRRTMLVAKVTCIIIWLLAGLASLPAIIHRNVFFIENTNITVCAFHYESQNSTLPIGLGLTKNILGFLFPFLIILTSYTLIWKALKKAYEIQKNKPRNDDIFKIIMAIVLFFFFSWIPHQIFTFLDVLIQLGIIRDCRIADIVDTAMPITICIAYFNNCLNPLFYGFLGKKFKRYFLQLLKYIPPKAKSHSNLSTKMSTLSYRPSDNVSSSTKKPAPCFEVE
The assay can be described thus: (§1) Antagonist activity at angiotensin 2 type-1 receptor (unknown origin).
In turn, `CCCCc1ncc(/C=C2/C(=O)N(CCCC)C(=O)N2Cc2ccc(-c3ccccc3)cc2)n1Cc1ccc(C(=O)OC)cc1` yielded a pIC50 of 6.05.

The next assay concerns the target T2, Type-1 angiotensin II receptor (Homo sapiens, UniProt P30556).
T2 sequence (P30556 whole entry): T1 sequence (whole entry)
The description is as §1.
`CCCCc1ncc(/C=C2/C(=O)NC(=O)N2CCCC)n1Cc1ccc(C(=O)OC)cc1` came in with an IC50 of 3.5 nM.
The same measure, in the same setting: under `CCCCc1ncc(/C=C2/C(=O)N(CCCC)C(=O)N2Cc2ccc(C)cc2)n1Cc1ccc(C(=O)OC)cc1` stands 34.6 nM; under `CCCCc1ncc(/C=C2\C(=O)NC(=O)N2CCCC)n1Cc1ccc(C2(C(=O)OC)CCCC2)cc1`, 2.5 nM.
In turn, `CCCCc1ncc(/C=C2/C(=O)N(CCCC)C(=O)N2Cc2ccc(C#N)cc2)n1Cc1ccc(C(=O)OC)cc1` showed an IC50 of 11.1 nM.
Consider `CCCCc1ncc(/C=C2\C(=O)NC(=O)N2Cc2ccccc2)n1Cc1ccc(C(=O)O)cc1`, for which it took 3.4 nM to reach half-maximal inhibition (IC50).
Same read-out and setting: then `CCCCc1ncc(/C=C2/C(=O)N(CCCC)C(=O)N2Cc2cc(C)cs2)n1Cc1ccc(C(=O)O)cc1`, with 1.5 nM; and `CCCCc1ncc(/C=C2/C(=O)N(CCCC)C(=O)N2Cc2ccc(OC)cc2)n1Cc1ccc(C(=O)OC)cc1`, with 9.8 nM.
The compound `CCCCc1ncc(/C=C2/C(=O)N(CCCC)C(=O)N2Cc2cccc(C)c2)n1Cc1ccc(C(=O)OC)cc1` registered an IC50 of 18.5 nM.
`CCCCc1ncc(/C=C2/C(=O)N(CCCC)C(=O)N2Cc2csc(C)n2)n1Cc1ccc(C(=O)OC)cc1` registered an IC50 of 1.9 nM.
The compound `CCCCc1ncc(/C=C2/C(=O)NC(=O)N2CCC(C)C)n1Cc1ccc(C(=O)O)cc1` gave an IC50 of 6.6 nM.
On to `CCCCc1ncc(/C=C2/C(=O)N(CCCC(F)(F)F)C(=O)N2Cc2csc(C)n2)n1Cc1ccc(C(=O)OC)cc1`, for which 70 nM corresponded to half-maximal inhibition (IC50).
As for `CCCCc1ncc(/C=C2/C(=O)N(CCCC)C(=O)N2Cc2ccc(N)cc2)n1Cc1ccc(C(=O)OC)cc1`, it took 3 nM to reach half-maximal inhibition (IC50).
Take `CCCCc1ncc(/C=C2/C(=O)N(CCCC)C(=O)N2Cc2c[nH]c(C)n2)n1Cc1ccc(C(=O)OC)cc1`: the IC50 is 245 nM.
Same read-out and setting: then `CCCCc1ncc(/C=C2/C(=O)N(CCCC)C(=O)N2Cc2ccc(-c3ccccc3)cc2)n1Cc1ccc(C(=O)OC)cc1`, with 884 nM; and `CCCCc1ncc(/C=C2\C(=O)N(CCCC)C(=O)N2Cc2csc(C)n2)n1Cc1ccc(C(=O)O)cc1`, with 1.7 nM; and `CCCCc1ncc(/C=C2/C(=O)NC(=O)N2Cc2ccc(Cl)cc2)n1Cc1ccc(C(=O)O)cc1`, with 3 nM.
Still for that read-out and setting: then `CCCCc1ncc(/C=C2/C(=O)N(CCCC)C(=O)N2C=C(C)C)n1Cc1ccc(C(=O)OC)cc1`, with 11.1 nM.
Turning to `CCCCc1ncc(/C=C2/C(=O)NC(=O)N2Cc2ccccc2)n1Cc1ccc(C(=O)O)cc1`, half-maximal inhibition (IC50) was put at 4 nM.
Still for that read-out and setting: then `CCCCc1ncc(/C=C2/C(=O)N(CCCC)C(=O)N2Cc2ccc(C(=O)OC)s2)n1Cc1ccc(C(=O)OC)cc1`, with 4.2 nM; and `CCCCc1ncc(/C=C2/C(=O)N(CCCC)C(=O)N2Cc2ccoc2)n1Cc1ccc(C(=O)OC)cc1`, with 8.3 nM.
On the same count and under the same terms, then `CCCCc1ncc(/C=C2/C(=O)N(CCCC)C(=O)N2Cc2cccc(Cl)c2)n1Cc1ccc(C(=O)OC)cc1`, with 117 nM.
Still for that read-out and setting: then `CCCCc1ncc(/C=C2/C(=O)N(CCCC)C(=O)N2Cc2csc(C)n2)n1Cc1ccc(C2(C(=O)O)CCCC2)cc1`, with 8 nM.
On to `CCCCc1ncc(/C=C2/C(=O)N(CCCC)C(=O)N2Cc2cccs2)n1Cc1ccc(C(=O)O)cc1`, for which it took 0.7 nM to reach half-maximal inhibition (IC50).
Still for that read-out and setting: then `CCCCc1ncc(/C=C2/C(=O)N(CCCC)C(=O)N2Cc2ccc(C(F)(F)F)cc2)n1Cc1ccc(C(=O)OC)cc1`, with 159 nM; and `CCCCc1ncc(/C=C2/C(=O)NC(=O)N2CCCC)n1Cc1ccc(-c2ccccc2-c2nn[nH]n2)cc1`, with 1.4 nM; and `CCCCc1ncc(/C=C2/C(=O)N(CSCC)C(=O)N2Cc2csc(C)n2)n1Cc1ccc(C(=O)OC)cc1`, with 9.6 nM.
Compound `CCCCc1ncc(/C=C2/C(=O)N(CCCC)C(=O)N2Cc2ccc(O)c(O)c2)n1Cc1ccc(C(=O)OC)cc1` had an IC50 of 4.9 nM.
On the same count and under the same terms, then `CCCCc1ncc(/C=C2/C(=O)N(CCCO)C(=O)N2Cc2csc(C)n2)n1Cc1ccc(C(=O)OC)cc1`, with 47.9 nM.
`CCCCc1ncc(/C=C2/C(=O)N(CCCC)C(=O)N2Cc2ccsc2)n1Cc1ccc(C(=O)O)cc1` showed an IC50 of 0.9 nM.
For `CCCCc1ncc(/C=C2\C(=O)N(CCCC)C(=O)N2Cc2csc(N)n2)n1Cc1ccc(C(=O)O)cc1`, the half-maximal inhibitory concentration (IC50) was 0.5 nM.
As to `CCCCc1ncc(/C=C2/C(=O)N(CCCC)C(=O)N2Cc2ccc(Cl)cc2)n1Cc1ccc(C(=O)OC)cc1`, it took 17.6 nM to reach half-maximal inhibition (IC50).
With `CCCCc1ncc(/C=C2/C(=O)N(CCCC)C(=O)N2Cc2csc(N)n2)n1Cc1ccc(C(=O)O)cc1`, the IC50 worked out at 0.6 nM.
`CCCCc1ncc(/C=C2/C(=O)N(CCCC)C(=O)N2Cc2ccsc2)n1Cc1ccc(C(=O)OC)cc1` displayed an IC50 of 4.8 nM.
In the case of `CCCCc1ncc(/C=C2/C(=O)N(CCCC)C(=O)N2Cc2c[nH]cn2)n1Cc1ccc(C(=O)OC)cc1`, the IC50 worked out at 54.5 nM.
For `CCCCc1ncc(/C=C2/C(=O)N(CCCC)C(=O)N2Cc2ccc(C)s2)n1Cc1ccc(C(=O)O)cc1`, the IC50 turned out to be 0.6 nM.
In turn, `CCCCc1ncc(/C=C2/C(=O)N(CCC)C(=O)N2Cc2csc(C)n2)n1Cc1ccc(C(=O)OC)cc1` came in with an IC50 of 9 nM.
`CCCCc1ncc(/C=C2/C(=O)NC(=O)N2CCCC)n1Cc1ccc(-c2nn[nH]n2)cc1` had an IC50 of 7.1 nM.
Compound `CCCCc1ncc(/C=C2/C(=O)N(CCCC)C(=O)N2c2ccccc2)n1Cc1ccc(C(=O)OC)cc1` yielded an IC50 of 6.1 nM.
On the same count and under the same terms, under `CCCCc1ncc(/C=C2/C(=O)NC(=O)N2CCCC)n1Cc1ccc(S(=O)(=O)NC(F)(F)F)cc1` stands 3.3 nM.
In turn, `CCCCc1ncc(/C=C2/C(=O)NC(=O)N2Cc2cccs2)n1Cc1ccc(C(=O)O)cc1` came in with an IC50 of 2.3 nM.
For the compound `CCCCc1ncc(/C=C2\C(=O)N(CCCC)C(=O)N2CCCC)n1Cc1ccc(C(=O)O)cc1`, the IC50 was 0.5 nM.
Consider `CCCCc1ncc(/C=C2/C(=O)N(CCCC)C(=O)N2Cc2ccc3ccccc3c2)n1Cc1ccc(C(=O)OC)cc1`, for which the IC50 came to 104 nM.
`CCCCc1ncc(/C=C2/C(=O)N(C)C(=O)N2Cc2csc(C)n2)n1Cc1ccc(C(=O)OC)cc1` came in with an IC50 of 16.6 nM.
As for `CCCCc1ncc(/C=C2\C(=O)NC(=O)N2CCC(C)C)n1Cc1ccc(C(=O)O)cc1`, the concentration for half-maximal inhibition (IC50) is 4.9 nM.
`CCCCc1ncc(/C=C2\C(=O)NC(=O)N2Cc2cccs2)n1Cc1ccc(C(=O)O)cc1` gave an IC50 of 2.6 nM.
On the same count and under the same terms, under `CCCCc1ncc(/C=C2/C(=O)N(CCCC)C(=O)N2CCc2csc(Br)c2)n1Cc1ccc(C(=O)OC)cc1` stands 25.4 nM; under `CCCCc1ncc(/C=C2/C(=O)NC(=O)N2Cc2cccs2)n1Cc1ccc(C(=O)OC)cc1`, 7.1 nM; under `CCCCc1ncc(/C=C2\C(=O)N(CCCC)C(=O)N2Cc2cccs2)n1Cc1ccc(C(=O)O)cc1`, 0.6 nM.
Compound `CCCCc1ncc(/C=C2\C(=O)NC(=O)N2CCCC)n1Cc1ccc(-c2nn[nH]n2)cc1` yielded a concentration for half-maximal inhibition (IC50) of 4.2 nM.
Take `CCCCc1ncc(/C=C2/C(=O)N(CCCC)C(=O)N2CCCC)n1Cc1ccc(S(=O)(=O)NC(F)(F)F)cc1`: half-maximal inhibition (IC50) was put at 29.6 nM.
